Experimental data as given in ChEMBL document CHEMBL1134790, “Design, synthesis, and evaluation of novel A2A adenosine receptor agonists” (J Med Chem, 2001).

Columns and labels:
Adenosine receptor A1 = target: T1, Adenosine receptor A1 (Rattus norvegicus, UniProt P25099); assay: biochemical
T1 sequence (P25099 whole entry): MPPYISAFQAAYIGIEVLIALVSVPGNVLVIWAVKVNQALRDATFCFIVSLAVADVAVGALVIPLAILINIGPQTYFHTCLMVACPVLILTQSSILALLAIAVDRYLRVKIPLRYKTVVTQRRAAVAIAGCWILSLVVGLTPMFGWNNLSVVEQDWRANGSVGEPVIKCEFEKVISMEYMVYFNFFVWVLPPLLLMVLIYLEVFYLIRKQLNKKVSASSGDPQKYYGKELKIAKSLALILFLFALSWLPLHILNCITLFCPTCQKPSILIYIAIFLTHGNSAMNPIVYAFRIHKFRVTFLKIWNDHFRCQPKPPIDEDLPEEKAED
Description: Binding affinity towards adenosine A1 receptor in rat brain cortex

Adenosine receptor A2a = Adenosine receptor A2a (Rattus norvegicus, UniProt P30543); assay: biochemical
Sequence of Adenosine receptor A2a (P30543 whole entry): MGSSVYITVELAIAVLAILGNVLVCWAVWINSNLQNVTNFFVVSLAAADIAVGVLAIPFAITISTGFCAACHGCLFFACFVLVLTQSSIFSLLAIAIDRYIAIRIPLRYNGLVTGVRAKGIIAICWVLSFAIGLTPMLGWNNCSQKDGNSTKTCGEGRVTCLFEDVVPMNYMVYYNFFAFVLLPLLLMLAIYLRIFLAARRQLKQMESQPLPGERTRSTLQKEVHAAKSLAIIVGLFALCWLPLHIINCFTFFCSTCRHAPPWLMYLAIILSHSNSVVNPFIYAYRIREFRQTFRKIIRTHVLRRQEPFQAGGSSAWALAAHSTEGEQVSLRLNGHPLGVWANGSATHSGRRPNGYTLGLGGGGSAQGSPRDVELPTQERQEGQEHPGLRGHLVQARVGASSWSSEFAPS
Description: Binding affinity towards adenosine A2A receptor in rat brain striatum

Row | SMILES | Ki (Adenosine receptor A1) [nM] | Ki (Adenosine receptor A2a) [nM]
1 | Nc1nc(OC2CCCC2)nc2c1ncn2[C@@H]1O[C@H](CO)[C@@H](O)[C@H]1O | 14000 | 1000
2 | Nc1nc(C#CCCc2ccccc2)nc2c1ncn2[C@@H]1O[C@H](CO)[C@@H](O)[C@H]1O |  | 37
3 | Nc1nc(C#CC2CCCC2)nc2c1ncn2[C@@H]1O[C@H](CO)[C@@H](O)[C@H]1O |  | 12
4 | CCCCCC#Cc1nc(N)c2ncn([C@@H]3O[C@H](CO)[C@@H](O)[C@H]3O)c2n1 |  | 5.4
5 | CCOc1nc(N)c2ncn([C@@H]3O[C@H](CO)[C@@H](O)[C@H]3O)c2n1 | 1300 | 1500
6 | CC(C)(C)OC(=O)C1CCCN1C[C@@H](O)[C@H](Cc1ccccc1)NC(=O)[C@H](CC(N)=O)NC(=O)OCc1ccccc1 (stereo partly drawn) | 130 | 2.2
7 | C[C@@H](CCOc1nc(N)c2ncn(C3O[C@H](CO)[C@H](O)[C@@H]3O)c2n1)c1ccccc1 (stereo partly drawn) | 1600 | 1700
8 | Nc1nc(OCCCc2ccccc2)nc2c1ncn2[C@@H]1O[C@H](CO)[C@@H](O)[C@H]1O | 3600 | 1200
9 | Nc1nc(OCCc2ccccc2)nc2c1ncn2[C@@H]1O[C@H](CO)[C@@H](O)[C@H]1O | 130 | 17
10 | Nc1nc(C#Cc2ccccc2)nc2c1ncn2[C@@H]1O[C@H](CO)[C@@H](O)[C@H]1O |  | 109
11 | Nc1nc(OCCC2CCCCC2)nc2c1ncn2[C@@H]1O[C@H](CO)[C@@H](O)[C@H]1O | 1600 | 22
12 | Nc1nc(OCCc2ccc(F)cc2)nc2c1ncn2[C@@H]1O[C@H](CO)[C@@H](O)[C@H]1O | 500 | 97
13 | CCNC(=O)[C@H]1OC(n2cnc3c(N)nc(NCCc4ccc(Cl)cc4)nc32)[C@H](O)[C@@H]1O (stereo partly drawn) |  | 7.5
14 | CCc1nc(N)c2ncn(C3O[C@H](CO)[C@@H](O)[C@H]3O)c2n1 (stereo partly drawn) | 186 | 21.2
15 | Nc1nc(OCC2CCCCC2)nc2c1ncn2C1O[C@H](CO)[C@@H](O)[C@H]1O (stereo partly drawn) | 3000 | 3200
16 | C#Cc1nc(N)c2ncn(C3O[C@H](CO)[C@@H](O)[C@H]3O)c2n1 (stereo partly drawn) |  | 37.6
17 | CCCOc1nc(N)c2ncn(C3O[C@H](CO)[C@@H](O)[C@H]3O)c2n1 (stereo partly drawn) | 1200 | 360
18 | COc1ccc(CCOc2nc(N)c3ncn(C4O[C@H](CO)[C@@H](O)[C@H]4O)c3n2)cc1OC (stereo partly drawn) | 380 | 40
19 | CCCc1nc(N)c2ncn(C3O[C@H](CO)[C@@H](O)[C@H]3O)c2n1 (stereo partly drawn) | 154 | 7.5
20 | CCNC(=O)[C@H]1OC(n2cnc3c(N)nc(C#CNCc4ccccc4)nc32)[C@H](O)[C@@H]1O (stereo partly drawn) | 8600 | 1130
21 | COc1cc(CCOc2nc(N)c3ncn(C4O[C@H](CO)[C@@H](O)[C@H]4O)c3n2)cc(OC)c1OC (stereo partly drawn) | 5000 | 330

Row | SMILES | Ki (Adenosine receptor A1) [nM] | Ki (Adenosine receptor A2a) [nM]
22 | CCC(CC)CCOc1nc(N)c2ncn(C3O[C@H](CO)[C@@H](O)[C@H]3O)c2n1 (stereo partly drawn) | 1490 | 530
23 | Nc1nc(CCO)nc2c1ncn2C1O[C@H](CO)[C@@H](O)[C@H]1O (stereo partly drawn) | 81.4 | 40.1
24 | Nc1nc(C#CCCC2CCCCC2)nc2c1ncn2C1O[C@H](CO)[C@@H](O)[C@H]1O (stereo partly drawn) |  | 26
25 | Nc1nc(OCCc2ccccc2Cl)nc2c1ncn2C1O[C@H](CO)[C@@H](O)[C@H]1O (stereo partly drawn) | 520 | 56
26 | COCc1nc(N)c2ncn(C3O[C@H](CO)[C@@H](O)[C@H]3O)c2n1 (stereo partly drawn) | 38.1 | 88.1
27 | Cc1ccc(CCOc2nc(N)c3ncn(C4O[C@H](CO)[C@@H](O)[C@H]4O)c3n2)cc1 (stereo partly drawn) | 49 | 11
28 | CC(C)Oc1nc(N)c2ncn(C3O[C@H](CO)[C@@H](O)[C@H]3O)c2n1 (stereo partly drawn) | 20000 | 7400
29 | COc1cccc(CCOc2nc(N)c3ncn(C4O[C@H](CO)[C@@H](O)[C@H]4O)c3n2)c1 (stereo partly drawn) | 760 | 320
30 | Nc1nc(OCCCCC2CCCCC2)nc2c1ncn2C1O[C@H](CO)[C@@H](O)[C@H]1O (stereo partly drawn) | 1100 | 18
31 | CCNC(=O)[C@H]1OC(n2cnc3c(N)nc(NCCc4ccc(OCC(=O)O)cc4)nc32)[C@H](O)[C@@H]1O (stereo partly drawn) |  | 42
32 | Nc1nc(OCc2ccccc2)nc2c1ncn2C1O[C@H](CO)[C@@H](O)[C@H]1O (stereo partly drawn) | 600 | 2200
33 | Nc1nc(CO)nc2c1ncn2C1O[C@H](CO)[C@@H](O)[C@H]1O (stereo partly drawn) | 10.1 | 20.5
34 | CCCCCCc1nc(N)c2ncn(C3O[C@H](CO)[C@@H](O)[C@H]3O)c2n1 (stereo partly drawn) | 202 | 12.1
35 | CCOCCCc1nc(N)c2ncn(C3O[C@H](CO)[C@@H](O)[C@H]3O)c2n1 (stereo partly drawn) | 244 | 12.8
36 | CCNC(=O)[C@H]1OC(n2cnc3c(N)nc(CC4CCC(COC(C)=O)CC4)nc32)[C@H](O)[C@@H]1O (stereo partly drawn) | 14 | 6.2
37 | Nc1nc(OCCc2cccc(Cl)c2)nc2c1ncn2C1O[C@H](CO)[C@@H](O)[C@H]1O (stereo partly drawn) | 250 | 76
38 | CC(C)CCCOc1nc(N)c2ncn(C3O[C@H](CO)[C@@H](O)[C@H]3O)c2n1 (stereo partly drawn) | 2100 | 130
39 | CCNC(=O)[C@H]1OC(n2cnc3c(N)nc(C#CNCCc4ccccc4)nc32)[C@H](O)[C@@H]1O (stereo partly drawn) | 473 | 9.7
40 | Nc1nc(C#CC2CCCCC2)nc2c1ncn2C1O[C@H](CO)[C@@H](O)[C@H]1O (stereo partly drawn) |  | 10
41 | CCCOCc1nc(N)c2ncn(C3O[C@H](CO)[C@@H](O)[C@H]3O)c2n1 (stereo partly drawn) |  | 10.6
42 | CC(C)COc1nc(N)c2ncn(C3O[C@H](CO)[C@@H](O)[C@H]3O)c2n1 (stereo partly drawn) | 2600 | 700

Row | SMILES | Ki (Adenosine receptor A1) [nM] | Ki (Adenosine receptor A2a) [nM]
43 | CCCOCCc1nc(N)c2ncn(C3O[C@H](CO)[C@@H](O)[C@H]3O)c2n1 (stereo partly drawn) | 128 | 10.2
44 | COc1ccc(CCOc2nc(N)c3ncn(C4O[C@H](CO)[C@@H](O)[C@H]4O)c3n2)cc1 (stereo partly drawn) | 480 | 32
45 | Nc1nc(C#CCCC2CCCC2)nc2c1ncn2C1O[C@H](CO)[C@@H](O)[C@H]1O (stereo partly drawn) |  | 3.4
46 | Nc1nc(OCCCCCc2ccccc2)nc2c1ncn2C1O[C@H](CO)[C@@H](O)[C@H]1O (stereo partly drawn) | 960 | 53
47 | CCC(CC)COc1nc(N)c2ncn(C3O[C@H](CO)[C@@H](O)[C@H]3O)c2n1 (stereo partly drawn) | 2700 | 4600
48 | CCNC(=O)[C@H]1OC(n2cnc3c(N)nc(C#CNCCc4ccc(CC(=O)O)cc4)nc32)[C@H](O)[C@@H]1O (stereo partly drawn) | 4880 | 45
49 | Nc1nc(OCCCC2CCCCC2)nc2c1ncn2C1O[C@H](CO)[C@@H](O)[C@H]1O (stereo partly drawn) | 2800 | 22
50 | CCNC(=O)[C@H]1OC(n2cnc3c(N)nc(C#CN(C)CCc4ccccc4)nc32)[C@H](O)[C@@H]1O (stereo partly drawn) | 12100 | 71
51 | CCNC(=O)[C@H]1OC(n2cnc3c(N)nc(CC4CCC(C(=O)OC)CC4)nc32)[C@H](O)[C@@H]1O (stereo partly drawn) | 28.1 | 4.5
52 | Cc1cccc(CCOc2nc(N)c3ncn(C4O[C@H](CO)[C@@H](O)[C@H]4O)c3n2)c1 (stereo partly drawn) | 140 | 61
53 | Cc1ccccc1CCOc1nc(N)c2ncn(C3O[C@H](CO)[C@@H](O)[C@H]3O)c2n1 (stereo partly drawn) | 450 | 39
54 | CCNC(=O)[C@H]1OC(n2cnc3c(N)nc(C#CNCCc4ccc(CC(=O)OC)cc4)nc32)[C@H](O)[C@@H]1O (stereo partly drawn) | 1260 | 9
55 | CCCCOc1nc(N)c2ncn(C3O[C@H](CO)[C@@H](O)[C@H]3O)c2n1 (stereo partly drawn) | 2500 | 270
56 | CCCCc1nc(N)c2ncn(C3O[C@H](CO)[C@@H](O)[C@H]3O)c2n1 (stereo partly drawn) | 126 | 2.8
57 | CCNC(=O)[C@H]1OC(n2cnc3c(N)nc(CC4CCC(CO)CC4)nc32)[C@H](O)[C@@H]1O (stereo partly drawn) | 0.84 | 0.48
58 | CCNC(=O)[C@H]1OC(n2cnc3c(N)nc(C#CNCCc4ccc(F)cc4)nc32)[C@H](O)[C@@H]1O (stereo partly drawn) | 1180 | 7.7
59 | CCCCCOc1nc(N)c2ncn(C3O[C@H](CO)[C@@H](O)[C@H]3O)c2n1 (stereo partly drawn) | 460 | 150
60 | Nc1nc(Oc2ccccc2)nc2c1ncn2C1O[C@H](CO)[C@@H](O)[C@H]1O (stereo partly drawn) | 3500 | 5700
61 | Nc1nc(OCCC2CCCC2)nc2c1ncn2C1O[C@H](CO)[C@@H](O)[C@H]1O (stereo partly drawn) | 1600 | 120
62 | CC[C@H](COc1nc(N)c2ncn(C3O[C@H](CO)[C@@H](O)[C@H]3O)c2n1)c1ccccc1 (stereo partly drawn) | 2300 | 430
